Assay results published in the NIST ThermoML archive (doi:10.1016/j.jct.2006.09.007).

How the values were obtained:
[1] = xn = mol fraction of the nth substance listed; conditions: 101.3 kPa, Liquid
[2] = 101.3 kPa, Liquid
[3] = molar heat capacity at constant pressure; conditions: 298.15 K; 101.33 kPa; Liquid; Flow calorimetry

N#Cc1ccccc1 [benzonitrile] + Cc1ccc(C)cc1
[1], 298.15 K, Flow calorimetry
Conditions	excess molar heat capacity [J/K/mol]
x1 = 0.0349	0.303
x1 = 0.0918	0.681
x1 = 0.2035	1.281
x1 = 0.2559	1.362
x1 = 0.3682	1.534
x1 = 0.4313	1.443
x1 = 0.5014	1.374
x1 = 0.5905	1.132
x1 = 0.6663	0.966
x1 = 0.7646	0.664
x1 = 0.8402	0.453
x1 = 0.9222	0.168
x1 = 0.9776	0.082

mass density [kg/m3], [1]
Conditions	x1 = 0.1009	x1 = 0.2247	x1 = 0.2938	x1 = 0.4357	x1 = 0.5627	x1 = 0.6605	x1 = 0.7646	x1 = 0.8328	x1 = 0.9439	x1 = 1
298.15 K	869.79	886.32	895.69	915.25	933.25	947.47	963.07	973.55	991.13	1000.25
308.15 K	860.32	876.88	886.28	905.85	923.86	938.07	953.65	964.15	981.68	990.67

N#Cc1ccccc1 [benzonitrile] + Cc1cccc(C)c1
[1], 298.15 K, Flow calorimetry
Conditions	excess molar heat capacity [J/K/mol]
x1 = 0.0568	0.522
x1 = 0.0772	0.686
x1 = 0.1671	1.299
x1 = 0.2404	1.53
x1 = 0.3272	1.727
x1 = 0.4115	1.696
x1 = 0.4878	1.66
x1 = 0.5753	1.415
x1 = 0.6422	1.272
x1 = 0.7301	0.936
x1 = 0.8157	0.683
x1 = 0.887	0.377
x1 = 0.9334	0.254

mass density [kg/m3], [1]
Conditions	x1 = 0.0741	x1 = 0.1804	x1 = 0.316	x1 = 0.4608	x1 = 0.5438	x1 = 0.6475	x1 = 0.74	x1 = 0.8816	x1 = 0.899	x1 = 1
298.15 K	869.26	883.15	901.15	920.81	932.33	947.01	960.47	981.74	984.42	1000.25
308.15 K	859.61	873.5	891.52	911.17	922.69	937.4	950.87	972.18	974.85	990.67

N#Cc1ccccc1 [benzonitrile] + Cc1ccccc1C
[1]
Conditions	excess molar heat capacity, 298.15 K [J/K/mol]	mass density, 298.15 K [kg/m3]	mass density, 308.15 K [kg/m3]
x1 = 0.0394	0.448	–	–
x1 = 0.0781	0.829	–	–
x1 = 0.0815	–	884.98	875.72
x1 = 0.1262	–	890.21	881
x1 = 0.1398	1.273	–	–
x1 = 0.1604	–	894.21	884.95
x1 = 0.2299	1.689	–	–
x1 = 0.2579	–	905.68	896.47
x1 = 0.2803	1.799	–	–
x1 = 0.3687	1.875	–	–
x1 = 0.4054	–	923.32	914.01
x1 = 0.4391	1.792	–	–
x1 = 0.496	–	934.4	925.13
x1 = 0.5361	–	939.32	929.98
x1 = 0.5364	1.592	–	–
x1 = 0.611	1.376	–	–
x1 = 0.6558	–	954.37	945.1
x1 = 0.6924	–	959.03	949.64
x1 = 0.7003	1.11	–	–
x1 = 0.7684	0.826	–	–
x1 = 0.8727	0.479	–	–
x1 = 0.876	–	983.2	973.86
x1 = 0.9031	–	986.86	977.39
x1 = 0.9314	0.242	–	–
x1 = 0.9608	–	994.84	985.42
x1 = 1	–	1000.25	990.67

CCc1ccccc1 [ethylbenzene]
[2]
Conditions	mass density [kg/m3]
298.15 K	862.41
308.15 K	852.72

Conditions	molar heat capacity at constant pressure [J/K/mol]
[3]	185.44

CCc1ccccc1 [ethylbenzene] + N#Cc1ccccc1
[1], x2 = 0
Conditions	mass density [kg/m3]
298.15 K	862.41
308.15 K	852.72

CC(C)c1ccccc1 [isopropylbenzene]
[2]
Conditions	mass density [kg/m3]
298.15 K	857.41
308.15 K	848.26

Conditions	molar heat capacity at constant pressure [J/K/mol]
[3]	214.75

CC(C)c1ccccc1 [isopropylbenzene] + N#Cc1ccccc1
[1], 298.15 K, Flow calorimetry
Conditions	excess molar heat capacity [J/K/mol]
x2 = 0.0812	1.087
x2 = 0.1147	1.448
x2 = 0.2052	2.23
x2 = 0.3131	2.763
x2 = 0.3691	2.935
x2 = 0.4488	2.929
x2 = 0.5194	2.919
x2 = 0.6256	2.511
x2 = 0.6997	2.226
x2 = 0.8003	1.545
x2 = 0.9038	0.825
x2 = 0.9407	0.527

mass density [kg/m3], [1]
Conditions	298.15 K	308.15 K
x2 = 0	857.41	848.26
x2 = 0.0581	864.33	855.15
x2 = 0.0865	867.75	858.59
x2 = 0.2036	882.15	872.93
x2 = 0.2835	892.28	883.09
x2 = 0.3445	900.22	891.02
x2 = 0.3887	906.07	896.85
x2 = 0.4445	913.59	904.41
x2 = 0.5627	930.2	920.94
x2 = 0.6557	943.85	934.41
x2 = 0.7271	954.72	945.3
x2 = 0.8102	967.92	958.51
x2 = 0.9017	983.11	973.75
